The text below walks through data of patent US5955076A, “Immunoactive peptides and antibodies and their use in anti-allergy treatment” (Peptide Therapeutics Limited, priority 1989, dated 1999).

Where no end group is shown, it is not given here.

Assay [1] deals with rat peritoneal mast cells. Also on record: dose or concentration left out as unconfirmed. Conditions: concentration range; in words; cited from earlier work.
Assay [2] has as its system rats experimentally sensitised to ovalbumin. Put plainly: Serum histamine after systemic ovalbumin challenge of immunised, experimentally sensitised rats. Type of assay: in vivo, rat.

For the substance “KTKGSGFF [octapeptide (sequence 497-504)]”, the “non-cytolytic release of histamine from rat peritoneal mast cells in vitro” value (“non-cytolytic release of histamine” for short) in assay [1] was “dose-dependent histamine release”.

Turning to “KTKGSGFFVF [decapeptide (sequence 497-506)]”, the “non-cytolytic release of histamine” value in assay [1] is given as “dose-dependent histamine release”.

On to “Lys-Tyr-Asn-Gly-Ser-Asn-Gln-Arg-Phe-Phe-Ile-Phe-NH2 (KYNGSNQRFFIF-NH2) [F49, histamine releasing rat ε-chain dodecapeptide, used as immunogen]”, for which the Histamine release in assay [2] (A = immunised before experimental sensitisation, Control A 300) came out at 0 ng/mL; in assay [2] (B = immunised after experimental sensitisation, Control B 950), 50 ng/mL.

“RKTKGSGFF [nonapeptide (sequence 496-504)]”: in assay [1], the “non-cytolytic release of histamine” value is “dose-dependent histamine release”.
